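All cell lines were grown in 96-well plates and treated with compound for 48 hours. TGI marks complete inhibition of growth.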 Where a SMILES comes first, the peptide text is derived from it. [ ]: non-standard residue; d: D form. The star is where a group is joined. Hyp = O=C(O)[CH]1C[CH](O)CN1; Cbz = O=C(OCc1ccccc1)*
Legend:
Assay in all cases: NCI-60 cell line screen, 48 h
[1] = system: EKVX NSCLC
[2] = system: NCI-H522 lung
[3] = system: TK-10 renal
[4] = system: MDA-N
[5] = system: OVCAR-4 ovarian
[6] = system: RXF 393 renal
[7] = system: NCI-H226 lung
[8] = system: HOP-62 NSCLC
[9] = system: MDA-MB-231 breast
[10] = system: HOP-92 NSCLC
[11] = system: SF-539 CNS
[12] = system: LOX IMVI melanoma
[13] = system: OVCAR-5 ovarian
[14] = system: PC-3 prostate
[15] = system: HCT-15 colon
[16] = system: MALME-3M melanoma
[17] = system: 786-0 renal
[18] = system: SNB-75 CNS
[19] = system: SF-268 CNS
[20] = system: SK-OV-3 ovarian
[21] = system: RPMI-8226 leukemia
[22] = system: MOLT-4 leukemia
[23] = system: KM12 colon
[24] = system: SF-295 CNS
[25] = system: A549 NSCLC
[26] = system: T-47D breast
[27] = system: NCI-H460 lung
[28] = system: ACHN renal
[29] = system: K-562 leukemia
[30] = system: UACC-257 melanoma
[31] = system: SR leukemia
[32] = system: HT29 colon
[33] = system: COLO 205 colon
[34] = system: OVCAR-8 ovarian
[35] = system: M14 melanoma
[36] = system: SK-MEL-28 melanoma
[37] = system: UO-31 renal
[38] = system: CAKI-1 renal
[39] = system: SK-MEL-2 melanoma
[40] = system: U251 CNS
[41] = system: UACC-62 melanoma
[42] = system: SW-620 colon
[43] = system: NCI-H23 lung
[44] = system: SNB-19 CNS
[45] = system: DU-145 prostate
[46] = system: BT-549 breast
[47] = system: SK-MEL-5 melanoma
[48] = system: IGROV1 ovarian
[49] = system: A498 renal
[50] = system: CCRF-CEM leukemia
[51] = system: MDA-MB-435
[52] = system: MCF7 breast
[53] = system: HS 578T breast
[54] = system: HL-60(TB) leukemia
[55] = system: NCI/ADR-RES ovarian
[56] = system: SN12C renal
[57] = system: OVCAR-3 ovarian
[58] = system: HCT-116 colon
[59] = system: HCC-2998 colon

With O=C(O)C(C(F)(F)F)C(F)(F)F (tested in a mixture with another compound) the TGI [1] was > 100 µM, the TGI [2] was > 100 µM and the TGI [3] was > 100 µM. For the same compound, the TGI [4] was > 100 µM, the TGI [5] was > 100 µM and the TGI [6] was > 100 µM. The TGI [7] was > 100 µM, the TGI [8] was > 100 µM and the TGI [9] was > 100 µM. For the same compound, the TGI [10] was > 100 µM, the TGI [11] was > 100 µM and the TGI [12] was > 100 µM. The TGI [13] was > 100 µM, the TGI [14] was > 100 µM and the TGI [15] was > 100 µM. The TGI [16] was > 100 µM, the TGI [17] was > 100 µM and the TGI [18] was > 100 µM. The TGI [19] was > 100 µM, the TGI [20] was > 100 µM and the TGI [21] was > 100 µM. The TGI [22] was > 100 µM, the TGI [23] was > 100 µM and the TGI [24] was > 100 µM. For the same compound, the TGI [25] was > 100 µM, the TGI [26] was > 100 µM and the TGI [27] was > 100 µM. For the same compound, the TGI [28] was > 100 µM, the TGI [29] was > 100 µM and the TGI [30] was > 100 µM. The TGI [31] was > 100 µM, the TGI [32] was > 100 µM and the TGI [33] was > 100 µM. For the same compound, the TGI [34] was > 100 µM, the TGI [35] was > 100 µM and the TGI [36] was > 100 µM. For the same compound, the TGI [37] was > 100 µM, the TGI [38] was > 100 µM and the TGI [39] was > 100 µM. For the same compound, the TGI [40] was > 100 µM, the TGI [41] was > 100 µM and the TGI [42] was > 100 µM. The TGI [43] was > 100 µM, the TGI [44] was > 100 µM and the TGI [45] was > 100 µM. For the same compound, the TGI [46] was > 100 µM, the TGI [47] was > 100 µM and the TGI [48] was > 100 µM. For the same compound, the TGI [49] was > 100 µM, the TGI [50] was > 100 µM and the TGI [51] was > 100 µM. For the same compound, the TGI [52] was > 100 µM, the TGI [53] was > 100 µM and the TGI [54] was > 100 µM. For the same compound, the TGI [55] was > 100 µM, the TGI [56] was > 100 µM and the TGI [57] was > 100 µM. The TGI [58] was > 100 µM.
For NC(=O)CNC(=O)C1CC(O)CN1C(=O)C1CCCN1C(=O)OCc1ccccc1 (stereo not drawn) (Cbz-Pro-[Hyp]-Gly-NH2; configuration not given here), the TGI [1] was > 100 µM, the TGI [2] was > 100 µM and the TGI [3] was > 100 µM. The TGI [4] was > 100 µM, the TGI [5] was > 100 µM and the TGI [6] was > 100 µM. The TGI [7] was > 100 µM, the TGI [8] was > 100 µM and the TGI [9] was > 100 µM. The TGI [12] was > 100 µM, the TGI [13] was > 100 µM and the TGI [14] was > 100 µM. The TGI [15] was > 100 µM, the TGI [16] was > 100 µM and the TGI [17] was > 100 µM. The TGI [18] was > 100 µM, the TGI [19] was > 100 µM and the TGI [20] was > 100 µM. The TGI [21] was > 100 µM, the TGI [22] was > 100 µM and the TGI [23] was > 100 µM. For the same compound, the TGI [24] was > 100 µM, the TGI [25] was > 100 µM and the TGI [26] was > 100 µM. The TGI [27] was > 100 µM, the TGI [28] was > 100 µM and the TGI [29] was > 100 µM. The TGI [30] was > 100 µM, the TGI [31] was > 100 µM and the TGI [32] was > 100 µM. The TGI [33] was > 100 µM, the TGI [34] was > 100 µM and the TGI [35] was > 100 µM. For the same compound, the TGI [36] was > 100 µM, the TGI [37] was > 100 µM and the TGI [39] was > 100 µM. For the same compound, the TGI [40] was > 100 µM, the TGI [41] was > 100 µM and the TGI [42] was > 100 µM. For the same compound, the TGI [43] was > 100 µM, the TGI [44] was > 100 µM and the TGI [45] was > 100 µM. For the same compound, the TGI [46] was > 100 µM, the TGI [47] was > 100 µM and the TGI [59] was > 100 µM. For the same compound, the TGI [48] was > 100 µM, the TGI [49] was > 100 µM and the TGI [50] was > 100 µM. The TGI [51] was > 100 µM, the TGI [52] was > 100 µM and the TGI [53] was > 100 µM. The TGI [54] was > 100 µM, the TGI [55] was > 100 µM and the TGI [56] was > 100 µM. For the same compound, the TGI [57] was > 100 µM and the TGI [58] was > 100 µM.
With COC(=O)C1OC(SCCN)C(O)C(O)C1O (stereo not drawn) the TGI [1] was > 100 µM, the TGI [2] was > 100 µM and the TGI [3] was > 100 µM. For the same compound, the TGI [4] was > 100 µM, the TGI [5] was > 100 µM and the TGI [6] was > 100 µM. The TGI [7] was > 100 µM, the TGI [8] was > 100 µM and the TGI [9] was > 100 µM. The TGI [10] was > 100 µM, the TGI [11] was > 100 µM and the TGI [12] was > 100 µM. For the same compound, the TGI [13] was > 100 µM, the TGI [14] was > 100 µM and the TGI [15] was > 100 µM. The TGI [16] was > 100 µM, the TGI [17] was > 100 µM and the TGI [18] was > 100 µM. The TGI [19] was > 100 µM, the TGI [20] was > 100 µM and the TGI [21] was > 100 µM. The TGI [22] was > 100 µM, the TGI [23] was > 100 µM and the TGI [24] was > 100 µM. For the same compound, the TGI [25] was > 100 µM, the TGI [26] was > 100 µM and the TGI [27] was > 100 µM. For the same compound, the TGI [28] was > 100 µM, the TGI [29] was > 100 µM and the TGI [30] was > 100 µM. The TGI [31] was > 100 µM, the TGI [32] was > 100 µM and the TGI [33] was > 100 µM. For the same compound, the TGI [34] was > 100 µM, the TGI [35] was > 100 µM and the TGI [36] was > 100 µM. For the same compound, the TGI [38] was > 100 µM, the TGI [39] was > 100 µM and the TGI [40] was > 100 µM. For the same compound, the TGI [41] was > 100 µM, the TGI [42] was > 100 µM and the TGI [43] was > 100 µM. For the same compound, the TGI [44] was > 100 µM, the TGI [45] was > 100 µM and the TGI [46] was > 100 µM. For the same compound, the TGI [47] was > 100 µM, the TGI [48] was > 100 µM and the TGI [49] was > 100 µM. The TGI [50] was > 100 µM, the TGI [51] was > 100 µM and the TGI [52] was > 100 µM. The TGI [53] was > 100 µM, the TGI [54] was > 100 µM and the TGI [55] was > 100 µM. For the same compound, the TGI [56] was > 100 µM, the TGI [57] was > 100 µM and the TGI [58] was > 100 µM.
For COc1cc([N+](=O)[O-])cc2c1NC(=O)C2(C)SC (stereo not drawn), the TGI [1] was > 100 µM, the TGI [2] was > 100 µM and the TGI [3] was > 100 µM. For the same compound, the TGI [4] was > 100 µM, the TGI [5] was > 100 µM and the TGI [6] was > 100 µM. The TGI [7] was > 100 µM, the TGI [8] was > 100 µM and the TGI [9] was > 100 µM. For the same compound, the TGI [12] was > 100 µM, the TGI [13] was > 100 µM and the TGI [14] was > 100 µM. For the same compound, the TGI [15] was > 100 µM, the TGI [16] was > 100 µM and the TGI [17] was > 100 µM. For the same compound, the TGI [18] was 90.6 µM, the TGI [19] was > 100 µM and the TGI [20] was 69.7 µM. For the same compound, the TGI [21] was > 100 µM, the TGI [22] was > 100 µM and the TGI [23] was > 100 µM. For the same compound, the TGI [24] was > 100 µM, the TGI [25] was > 100 µM and the TGI [26] was > 100 µM. For the same compound, the TGI [27] was > 100 µM, the TGI [28] was > 100 µM and the TGI [29] was > 100 µM. For the same compound, the TGI [30] was > 100 µM, the TGI [31] was > 100 µM and the TGI [32] was > 100 µM. The TGI [33] was > 100 µM, the TGI [34] was > 100 µM and the TGI [35] was > 100 µM. The TGI [36] was > 100 µM, the TGI [37] was > 100 µM and the TGI [38] was > 100 µM. For the same compound, the TGI [39] was > 100 µM, the TGI [40] was > 100 µM and the TGI [41] was > 100 µM. For the same compound, the TGI [42] was > 100 µM, the TGI [43] was > 100 µM and the TGI [44] was > 100 µM. For the same compound, the TGI [45] was > 100 µM, the TGI [46] was > 100 µM and the TGI [47] was > 100 µM. The TGI [59] was > 100 µM, the TGI [48] was > 100 µM and the TGI [49] was > 100 µM. The TGI [50] was > 100 µM, the TGI [51] was > 100 µM and the TGI [52] was > 100 µM. For the same compound, the TGI [53] was > 100 µM, the TGI [54] was 47.2 µM and the TGI [55] was > 100 µM. For the same compound, the TGI [56] was > 100 µM, the TGI [57] was > 100 µM and the TGI [58] was > 100 µM.

From PubChem BioAssay (NCI)
